# According to patent publication EP4722212A1, “NOVEL COMPOUND FOR INHIBITING PROTEIN KINASES AND PHARMACEUTICAL COMPOSITION COMPRISING SAME” (Magicbullettherapeutics Co., Ltd., priority 2023, dated 2024):
# Like-named read-outs stand apart in the source and are kept apart here.
# Legend:
# Assay in all cases: Kinase panel
# Type in all cases: biochemical
# BMX/ETK = BMX/ETK (Homo sapiens, UniProt P51813); details: read-out: residual enzyme activity
# Method in brief: (§1)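 1 µM, one concentration only, biochemical panel format. Residual activity computed per kinase; threshold for identification: residual ≤40%.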
# C-KIT = C-KIT (Homo sapiens, UniProt P10721); details: read-out: residual enzyme activity
# Method in brief: as §1
# CAMK4 = CAMK4 (Homo sapiens, UniProt Q16566); details: CAMK4, 1 µM; read-out: residual enzyme activity
# Method in brief: as §1
# CDK1/CYCLIN E = CDK1/CYCLIN E (Homo sapiens, UniProt P06493); details: read-out: residual enzyme activity
# Method in brief: as §1
# CDK18/CYCLIN Y (PCTK3) = CDK18/CYCLIN Y (PCTK3) (Homo sapiens, UniProt Q07002); details: read-out: residual enzyme activity
# Method in brief: as §1
# CDK2/CYCLIN E = CDK2/CYCLIN E (Homo sapiens, UniProt P24941); details: read-out: residual enzyme activity
# Method in brief: as §1
# CLK3 = CLK3 (Homo sapiens, UniProt P49761); details: CLK3, 1 µM; read-out: residual enzyme activity
# Method in brief: as §1
# DAPK2 = DAPK2 (Homo sapiens, UniProt Q9UIK4); details: DAPK2, 1 µM; read-out: residual enzyme activity
# Method in brief: as §1
# DYRK3 = DYRK3 (Homo sapiens, UniProt O43781); details: DYRK3, 1 µM; read-out: residual enzyme activity
# Method in brief: as §1
# EPHB3 = EPHB3 (Homo sapiens, UniProt P54753); details: EPHB3, 1 µM; read-out: residual enzyme activity
# Method in brief: as §1
# EPHB4 = EPHB4 (Homo sapiens, UniProt P54760); details: EPHB4, 1 µM; read-out: residual enzyme activity
# Method in brief: as §1
# FGFR2 = FGFR2 (Homo sapiens, UniProt P21802); details: FGFR2, 1 µM; read-out: residual enzyme activity
# Method in brief: as §1
# FMS = FMS (Homo sapiens, UniProt P07333); details: read-out: residual enzyme activity
# Method in brief: as §1
# FYN = FYN (Homo sapiens, UniProt P06241); details: read-out: residual enzyme activity
# Method in brief: as §1
# IKKA/CHUK = IKKA/CHUK (Homo sapiens, UniProt O15111); details: read-out: residual enzyme activity
# Method in brief: as §1
# IKKE/IKBKE = IKKE/IKBKE (Homo sapiens, UniProt Q14164); details: read-out: residual enzyme activity
# Method in brief: as §1
# IRAK1 = IRAK1 (Homo sapiens, UniProt P51617); details: IRAK1, 1 µM; read-out: residual enzyme activity
# Method in brief: as §1
# JAK2 = JAK2 (Homo sapiens, UniProt O60674); details: JAK2, 1 µM; read-out: residual enzyme activity
# Method in brief: as §1
# KSR2 = KSR2 (Homo sapiens, UniProt Q6VAB6); details: KSR2, 1 µM; read-out: residual enzyme activity
# Method in brief: as §1
# LCK = LCK (Homo sapiens, UniProt P06239); details: read-out: residual enzyme activity
# Method in brief: as §1
# MAPKAPK2 = MAPKAPK2 (Homo sapiens, UniProt P49137); details: MAPKAPK2, 1 µM; read-out: residual enzyme activity
# Method in brief: as §1
# MEK2 = MEK2 (Homo sapiens, UniProt P36507); details: MEK2, 1 µM; read-out: residual enzyme activity
# Method in brief: as §1
# MST4 = MST4 (Homo sapiens, UniProt Q9P289); details: MST4, 1 µM; read-out: residual enzyme activity
# Method in brief: as §1
# MYLK3 = MYLK3 (Homo sapiens, UniProt Q32MK0); details: MYLK3, 1 µM; read-out: residual enzyme activity
# Method in brief: as §1
# NEK9 = NEK9 (Homo sapiens, UniProt Q8TD19); details: NEK9, 1 µM; read-out: residual enzyme activity
# Method in brief: as §1
# PAK4 = PAK4 (Homo sapiens, UniProt O96013); details: PAK4, 1 µM; read-out: residual enzyme activity
# Method in brief: as §1
# PIM1 = PIM1 (Homo sapiens, UniProt P11309); details: PIM1, 1 µM; read-out: residual enzyme activity
# Method in brief: as §1
# PKCIOTA = PKCIOTA (Homo sapiens, UniProt P41743); details: read-out: residual enzyme activity
# Method in brief: as §1
# PKG1A = PKG1A (Homo sapiens, UniProt Q13976); details: read-out: residual enzyme activity
# Method in brief: as §1
# PKN1/PRK1 = PKN1/PRK1 (Homo sapiens, UniProt Q16512); details: PKN1/PRK1, 1 µM; read-out: residual enzyme activity
# Method in brief: as §1
# PKN2/PRK2 = PKN2/PRK2 (Homo sapiens, UniProt Q16513); details: PKN2/PRK2, 1 µM; read-out: residual enzyme activity
# Method in brief: as §1
# SLK/STK2 = SLK/STK2 (Homo sapiens, UniProt Q9H2G2); details: SLK/STK2, 1 µM; read-out: residual enzyme activity
# Method in brief: as §1
# STK32B/YANK2 = STK32B/YANK2 (Homo sapiens, UniProt Q9NY57); details: STK32B/YANK2, 1 µM; read-out: residual enzyme activity
# Method in brief: as §1
# STK32C/YANK3 = STK32C/YANK3 (Homo sapiens, UniProt Q86UX6); details: STK32C/YANK3, 1 µM; read-out: residual enzyme activity
# Method in brief: as §1
# Sequence of C-KIT (P10721 26-976): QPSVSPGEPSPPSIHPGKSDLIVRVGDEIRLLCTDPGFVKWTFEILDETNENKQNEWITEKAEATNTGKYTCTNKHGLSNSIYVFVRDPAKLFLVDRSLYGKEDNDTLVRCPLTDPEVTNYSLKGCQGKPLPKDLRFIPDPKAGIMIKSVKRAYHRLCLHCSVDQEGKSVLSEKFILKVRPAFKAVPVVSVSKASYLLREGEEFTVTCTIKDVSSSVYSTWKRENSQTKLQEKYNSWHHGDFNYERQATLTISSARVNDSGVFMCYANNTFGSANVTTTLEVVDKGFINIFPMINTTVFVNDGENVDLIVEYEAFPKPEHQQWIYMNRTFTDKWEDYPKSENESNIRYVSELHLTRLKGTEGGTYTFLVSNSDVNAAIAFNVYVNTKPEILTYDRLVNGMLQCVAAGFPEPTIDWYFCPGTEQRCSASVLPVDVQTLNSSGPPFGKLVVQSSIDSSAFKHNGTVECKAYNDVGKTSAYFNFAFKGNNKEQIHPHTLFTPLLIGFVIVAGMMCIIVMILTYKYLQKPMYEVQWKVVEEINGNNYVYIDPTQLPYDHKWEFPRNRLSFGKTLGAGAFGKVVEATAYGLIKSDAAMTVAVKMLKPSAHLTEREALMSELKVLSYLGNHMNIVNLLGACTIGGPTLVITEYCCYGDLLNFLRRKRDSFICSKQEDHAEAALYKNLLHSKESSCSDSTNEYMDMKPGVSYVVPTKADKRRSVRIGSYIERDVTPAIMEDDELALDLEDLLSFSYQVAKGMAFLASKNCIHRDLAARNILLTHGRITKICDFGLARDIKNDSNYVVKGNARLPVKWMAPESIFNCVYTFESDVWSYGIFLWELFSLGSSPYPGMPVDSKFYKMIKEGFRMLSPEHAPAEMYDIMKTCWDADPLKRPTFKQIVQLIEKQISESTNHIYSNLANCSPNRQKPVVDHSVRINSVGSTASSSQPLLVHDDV
# Sequence of SLK/STK2 (Q9H2G2 whole entry): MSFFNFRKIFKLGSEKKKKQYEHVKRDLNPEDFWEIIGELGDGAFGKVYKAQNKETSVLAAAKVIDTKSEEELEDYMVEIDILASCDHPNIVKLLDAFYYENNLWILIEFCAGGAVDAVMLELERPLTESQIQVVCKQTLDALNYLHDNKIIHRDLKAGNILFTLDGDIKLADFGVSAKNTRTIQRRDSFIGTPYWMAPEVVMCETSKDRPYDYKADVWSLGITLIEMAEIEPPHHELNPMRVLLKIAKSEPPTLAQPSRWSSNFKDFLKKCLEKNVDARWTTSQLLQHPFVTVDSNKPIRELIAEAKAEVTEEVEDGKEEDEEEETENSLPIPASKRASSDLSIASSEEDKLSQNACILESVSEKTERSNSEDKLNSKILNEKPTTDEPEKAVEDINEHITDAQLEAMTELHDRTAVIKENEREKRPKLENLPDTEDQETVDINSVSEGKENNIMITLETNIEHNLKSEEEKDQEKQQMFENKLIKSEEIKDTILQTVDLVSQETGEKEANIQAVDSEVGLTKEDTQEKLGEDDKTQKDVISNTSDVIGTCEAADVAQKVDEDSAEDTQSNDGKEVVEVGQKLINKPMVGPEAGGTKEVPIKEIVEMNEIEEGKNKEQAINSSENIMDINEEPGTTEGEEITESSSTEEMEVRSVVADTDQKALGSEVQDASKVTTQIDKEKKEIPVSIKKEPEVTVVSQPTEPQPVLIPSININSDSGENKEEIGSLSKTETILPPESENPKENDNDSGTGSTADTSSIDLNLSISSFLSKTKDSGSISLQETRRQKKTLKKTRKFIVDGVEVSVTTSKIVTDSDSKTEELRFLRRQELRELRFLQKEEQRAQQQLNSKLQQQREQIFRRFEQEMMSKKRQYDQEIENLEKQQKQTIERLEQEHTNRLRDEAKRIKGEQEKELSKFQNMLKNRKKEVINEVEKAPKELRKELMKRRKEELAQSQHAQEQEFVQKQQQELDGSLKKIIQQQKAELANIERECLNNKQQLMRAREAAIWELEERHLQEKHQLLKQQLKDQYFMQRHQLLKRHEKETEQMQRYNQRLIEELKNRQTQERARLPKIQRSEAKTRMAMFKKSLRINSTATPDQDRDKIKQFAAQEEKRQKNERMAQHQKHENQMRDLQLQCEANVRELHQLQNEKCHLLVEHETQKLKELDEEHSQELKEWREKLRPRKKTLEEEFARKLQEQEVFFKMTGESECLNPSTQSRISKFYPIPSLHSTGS
# Sequence of CDK18/CYCLIN Y (PCTK3) (Q07002 whole entry, species assumed): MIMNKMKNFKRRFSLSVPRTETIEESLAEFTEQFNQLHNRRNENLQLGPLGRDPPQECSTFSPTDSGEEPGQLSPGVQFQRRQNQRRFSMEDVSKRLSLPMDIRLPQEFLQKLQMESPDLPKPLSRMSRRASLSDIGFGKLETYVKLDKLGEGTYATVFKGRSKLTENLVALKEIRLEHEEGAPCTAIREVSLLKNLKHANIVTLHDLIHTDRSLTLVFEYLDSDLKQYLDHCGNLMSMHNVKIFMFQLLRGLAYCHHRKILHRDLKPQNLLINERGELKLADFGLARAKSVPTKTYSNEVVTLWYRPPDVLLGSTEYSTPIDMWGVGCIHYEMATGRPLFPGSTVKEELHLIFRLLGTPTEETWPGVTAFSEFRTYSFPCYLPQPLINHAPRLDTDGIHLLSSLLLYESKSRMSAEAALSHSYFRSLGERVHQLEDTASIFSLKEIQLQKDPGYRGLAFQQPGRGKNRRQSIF
# Sequence of CDK18/CYCLIN Y (PCTK3) (Q8ND76 whole entry partner, species assumed): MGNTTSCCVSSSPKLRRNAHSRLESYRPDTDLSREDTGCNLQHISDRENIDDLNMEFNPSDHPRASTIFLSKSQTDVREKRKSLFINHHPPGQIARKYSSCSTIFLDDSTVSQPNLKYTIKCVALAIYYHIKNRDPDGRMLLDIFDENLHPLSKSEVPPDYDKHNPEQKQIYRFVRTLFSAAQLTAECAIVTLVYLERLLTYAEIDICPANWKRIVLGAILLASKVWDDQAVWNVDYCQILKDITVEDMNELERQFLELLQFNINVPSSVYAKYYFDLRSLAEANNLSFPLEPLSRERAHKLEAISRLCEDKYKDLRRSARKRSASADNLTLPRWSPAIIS
# Sequence of MYLK3 (Q32MK0 whole entry, species assumed): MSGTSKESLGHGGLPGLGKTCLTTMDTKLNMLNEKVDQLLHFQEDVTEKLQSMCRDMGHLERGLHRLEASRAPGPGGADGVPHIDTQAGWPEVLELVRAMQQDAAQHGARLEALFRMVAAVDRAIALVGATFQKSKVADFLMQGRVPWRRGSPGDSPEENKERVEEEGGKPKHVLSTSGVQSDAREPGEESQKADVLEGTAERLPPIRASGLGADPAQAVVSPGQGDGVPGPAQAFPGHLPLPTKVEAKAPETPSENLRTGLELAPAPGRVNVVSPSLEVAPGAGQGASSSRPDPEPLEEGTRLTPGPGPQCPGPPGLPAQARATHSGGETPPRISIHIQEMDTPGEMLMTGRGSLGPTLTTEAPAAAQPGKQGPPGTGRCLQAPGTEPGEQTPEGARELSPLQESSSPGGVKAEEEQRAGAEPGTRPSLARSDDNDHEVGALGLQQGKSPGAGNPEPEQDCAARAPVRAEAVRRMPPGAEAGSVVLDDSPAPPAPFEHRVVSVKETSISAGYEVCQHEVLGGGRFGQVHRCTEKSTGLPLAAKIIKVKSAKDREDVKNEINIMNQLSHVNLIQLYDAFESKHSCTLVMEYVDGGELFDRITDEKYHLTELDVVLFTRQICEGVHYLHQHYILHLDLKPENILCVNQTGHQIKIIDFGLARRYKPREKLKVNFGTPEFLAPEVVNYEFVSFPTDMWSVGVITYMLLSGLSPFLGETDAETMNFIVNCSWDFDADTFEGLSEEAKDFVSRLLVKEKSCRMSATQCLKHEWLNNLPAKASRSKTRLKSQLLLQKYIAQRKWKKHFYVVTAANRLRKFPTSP
# Sequence of IKKA/CHUK (O15111 whole entry): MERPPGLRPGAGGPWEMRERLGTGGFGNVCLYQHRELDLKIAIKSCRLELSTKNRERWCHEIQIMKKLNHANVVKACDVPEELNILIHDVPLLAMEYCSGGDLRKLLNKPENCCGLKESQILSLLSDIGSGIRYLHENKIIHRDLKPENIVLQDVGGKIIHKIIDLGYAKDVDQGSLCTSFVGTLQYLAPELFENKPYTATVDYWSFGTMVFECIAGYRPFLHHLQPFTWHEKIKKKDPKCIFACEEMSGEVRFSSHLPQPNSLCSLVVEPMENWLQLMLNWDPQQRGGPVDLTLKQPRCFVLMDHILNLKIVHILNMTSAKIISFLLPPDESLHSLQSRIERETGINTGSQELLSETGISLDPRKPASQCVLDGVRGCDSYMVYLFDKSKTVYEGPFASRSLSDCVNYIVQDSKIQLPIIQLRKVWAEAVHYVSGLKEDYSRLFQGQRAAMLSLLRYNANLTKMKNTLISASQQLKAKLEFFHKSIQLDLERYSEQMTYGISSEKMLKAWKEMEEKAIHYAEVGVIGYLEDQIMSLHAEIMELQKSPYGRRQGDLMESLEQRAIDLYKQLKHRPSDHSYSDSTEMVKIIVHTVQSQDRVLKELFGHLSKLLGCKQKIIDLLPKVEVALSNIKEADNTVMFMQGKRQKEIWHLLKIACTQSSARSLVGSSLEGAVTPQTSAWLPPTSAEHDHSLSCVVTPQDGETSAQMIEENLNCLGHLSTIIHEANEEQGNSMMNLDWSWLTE
# Sequence of PIM1 (P11309 whole entry, species assumed): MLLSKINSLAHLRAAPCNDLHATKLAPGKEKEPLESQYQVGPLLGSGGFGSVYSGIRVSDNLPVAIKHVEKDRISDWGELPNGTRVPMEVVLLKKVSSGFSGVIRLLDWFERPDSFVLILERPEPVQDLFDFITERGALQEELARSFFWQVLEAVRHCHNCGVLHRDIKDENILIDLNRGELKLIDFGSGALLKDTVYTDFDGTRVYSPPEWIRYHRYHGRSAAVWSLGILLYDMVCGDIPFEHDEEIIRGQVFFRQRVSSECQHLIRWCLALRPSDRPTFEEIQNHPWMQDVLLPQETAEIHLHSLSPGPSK
SMILES,remaining activity at 1 µM (BMX/ETK),remaining activity at 1 µM (CAMK4),remaining activity at 1 µM (CDK1/CYCLIN E),remaining activity at 1 µM (CDK18/CYCLIN Y (PCTK3)),remaining activity at 1 µM (CDK2/CYCLIN E),remaining activity at 1 µM (CLK3),remaining activity at 1 µM (DAPK2),remaining activity at 1 µM (DYRK3),remaining activity at 1 µM (EPHB3),remaining activity at 1 µM (EPHB4),remaining activity at 1 µM (FGFR2),remaining activity at 1 µM (FMS),remaining activity at 1 µM (FYN),remaining activity at 1 µM (IKKA/CHUK),remaining activity at 1 µM (IKKE/IKBKE),remaining activity at 1 µM (IRAK1),remaining activity at 1 µM (JAK2),remaining activity at 1 µM (KSR2),remaining activity at 1 µM (LCK),remaining activity at 1 µM (MAPKAPK2),further results
"Cc1cn(-c2cc(C(=O)Nc3ccc(C)c(N4Cc5cnc(NC6CC6)nc5C5(CC5)C4=O)c3)cc(C(F)(F)F)c2)cn1 [Compound 8, N-(3-(2'-(cyclopropylamino)-7'-oxo-5'H-spiro[cyclopropane-1,8'-pyrido[4,3-d]pyrimidine]-6'(7'H)-yl)-4-methylphenyl)-3-(4-methyl-1H-imidazol-1-yl)-5-(trifluoromethyl)benzamide]",≤ 40%,> 40%,> 40%,> 40%,> 40%,> 40%,> 40%,> 40%,≤ 40%,≤ 40%,≤ 40%,≤ 40%,≤ 40%,> 40%,> 40%,> 40%,≤ 40%,> 40%,≤ 40%,> 40%,remaining activity at 1 µM (C-KIT; C-KIT): ≤ 40%; remaining activity at 1 µM (MEK2): > 40%; remaining activity at 1 µM (MST4): > 40%; remaining activity at 1 µM (MYLK3): > 40%; remaining activity at 1 µM (NEK9): > 40%; remaining activity at 1 µM (PAK4): > 40%; remaining activity at 1 µM (PIM1): > 40%; remaining activity at 1 µM (PKCIOTA): > 40%; remaining activity at 1 µM (PKG1A; PKG1A): > 40%; remaining activity at 1 µM (PKN1/PRK1): > 40%; remaining activity at 1 µM (PKN2/PRK2): > 40%; remaining activity at 1 µM (SLK/STK2): ≤ 40%; remaining activity at 1 µM (STK32B/YANK2): ≤ 40%; remaining activity at 1 µM (STK32C/YANK3): > 40%
"Cc1ccc(Nc2ncc3c(n2)C2(CC2)C(=O)N(c2cc(NC(=O)c4cccc(C(F)(F)F)c4)ccc2C)C3)cn1 [Compound 51, N-(4-methyl-3-(2'-((6-methylpyridin-3-yl)amino)-7'-oxo-5'H-spiro[cyclopropane-1,8'-pyrido[4,3-d]pyrimidine]-6'(7'H)-yl)phenyl)-3-(trifluoromethyl)benzamide]",≤ 40%,> 40%,> 40%,> 40%,> 40%,> 40%,> 40%,> 40%,≤ 40%,≤ 40%,≤ 40%,≤ 40%,≤ 40%,> 40%,> 40%,> 40%,≤ 40%,> 40%,≤ 40%,> 40%,remaining activity at 1 µM (C-KIT; c-Kit): ≤ 40%; remaining activity at 1 µM (MEK2): > 40%; remaining activity at 1 µM (MST4): > 40%; remaining activity at 1 µM (MYLK3): > 40%; remaining activity at 1 µM (NEK9): > 40%; remaining activity at 1 µM (PAK4): > 40%; remaining activity at 1 µM (PIM1): > 40%; remaining activity at 1 µM (PKCIOTA): > 40%; remaining activity at 1 µM (PKG1A; PKGla): > 40%; remaining activity at 1 µM (PKN1/PRK1): > 40%; remaining activity at 1 µM (PKN2/PRK2): > 40%; remaining activity at 1 µM (SLK/STK2): ≤ 40%; remaining activity at 1 µM (STK32B/YANK2): ≤ 40%; remaining activity at 1 µM (STK32C/YANK3): > 40%
